pIC50: −log10 of the molar value.
What was measured:
[1] = system: L6 cells (rat skeletal myoblasts); test: In vitro cytotoxicity with L6 cells, Alamar Blue assay; format: cell-based
Description: (§1) In vitro cytotoxicity with L6 cells (a […] cell line derived from rat skeletal myoblasts) were performed in 96-well microtiter plates with each well containing 100 μl of RPMI 1640 medium supplemented with 1% L-glutamine (200 mM) and 10% fetal bovine serum and 4000 L6 cells. Serial drug dilutions from 100 to 0.002 μg/mL were prepared and after 70 h of incubation the plates were microscopically inspected to ensure the validity of control wells and sterile conditions. Then, 10 μl of Alamar Blue was added to each well and the plates incubated for an additional 2 h. Plates were read with a Spectramax Gemini XS microplate fluorometer (Molecular Devices Cooperation, Sunnyvale, CA, USA) using an excitation wave length of 536 nm and an emission wave length of 588 nm.

[2] = system: Trypanosoma brucei rhodesiense STIB900 (bloodstream trypomastigotes); test: In vitro antitrypanosomal activity, Alamar Blue assay; format: cell-based; settings: 70 h, STIB900 bloodstream forms, 70 h incubation, read-out: IC50 T. b. rhodesiense
Description: Assays were performed as described by Bernal et al.. In vitro antitrypanosomal activities of compounds were determined against Trypanosoma brucei rhodesiense STIB900 (bloodstream trypomastigotes) where the parasitic stock was isolated in 1982 from a human patient in Tanzania. […] Then, 10 μl of Alamar Blue (resazurin, 12.5 mg in 100 mL double-distilled water) was added to each well and incubation continued for a further 2–4 h. Plates were read with a Spectramax Gemini XS microplate fluorometer (Molecular Devices Cooperation, Sunnyvale, CA, USA) using an excitation wavelength of 536 nm and an emission wavelength of 588 nm.

[3] = In vitro cytotoxicity with L6 cells, Alamar Blue assay; format: cell-based, rat; settings: L6 rat skeletal myoblasts, 70 h incubation
Description: as §1

[4] = L6 cells (rat skeletal myoblasts)

Row | Molecule | melting point [°C] | also measured
1 | 4-(2-Methoxyphenyl)-6-(pyridin-2-yl)pyrimidin-2-amine [Compound 23] |  | CC50 [1]: > 100 µM
2 | 4-(2-Methoxyphenyl)-6-(pyridin-4-yl)pyrimidin-2-amine [Compound 25] |  | CC50 [1]: > 70 µM
3 | 4-(2-Methoxyphenyl)-6-(pyridin-4-yl)pyrimidine [Compound 24] |  | CC50 [1]: > 100 µM
4 | c1ccc(-c2cc(-c3cccnc3)ncn2)cc1 [Compound 1, 4-Phenyl-6-(pyridin-3-yl)pyrimidine] | 116 to 118 | 
5 | c1cncc(-c2cc(-c3cccnc3)ncn2)c1 [Compound 2, 4,6-Bis(Pyridin-3-yl)pyrimidine] | 206 to 207 | 
6 | COc1ccccc1-c1cc(-c2cccnc2)ncn1 [Compound 3, 4-(2-Methoxyphenyl)-6-(pyridin-3-yl)pyrimidine] | 102 to 104 | 
7 | COc1cccc(-c2cc(-c3cccnc3)ncn2)c1 [Compound 5, 4-(3-Methoxyphenyl)-6-(pyridin-3-yl)pyrimidine] | 124 to 125 | 
8 | Brc1cccc(-c2cc(-c3cccnc3)ncn2)c1 [Compound 6, 4-(3-Bromophenyl)-6-(pyridin-3-yl)pyrimidine] | 162 to 163 | 
9 | Fc1cccc(-c2cc(-c3cccnc3)ncn2)c1 [Compound 7, 4-(3-Fluorophenyl)-6-(pyridin-3-yl)pyrimidine] | 193 to 195 | 
10 | COc1ccc(-c2cc(-c3cccnc3)ncn2)cc1 [Compound 8, 4-(4-Methoxyphenyl)-6-(pyridin-3-yl)pyrimidine] | 165 to 167 | 
11 | COc1ccc(-c2cc(-c3cccnc3)ncn2)cc1OC [Compound 9, 4-(3,4-Dimethoxyphenyl)-6-(pyridin-3-yl)pyrimidine] | 131 to 134 | 
12 | c1cncc(-c2cc(-c3ccc4c(c3)OCO4)ncn2)c1 [Compound 10, 4-(2H-1,3-benzodioxol-5-yl)-6-(pyridin-3-yl)pyrimidine] | 173 to 175 | pIC50 [2]: 5.17; CC50 at 70 h [3, 4]: > 100 µM
13 | Nc1nc(-c2ccccc2)cc(-c2cccnc2)n1 [Compound 11, 4-Phenyl-6-(pyridin-3-yl)pyrimidin-2-amine] | 172 to 175 | 
14 | Nc1nc(-c2cccnc2)cc(-c2cccnc2)n1 [Compound 12, 4,6-Bis(Pyridin-3-yl)pyrimidin-2-amine] | 229 to 230 | 
15 | Nc1nc(-c2cccnc2)cc(-c2ccccc2Br)n1 [Compound 14, 4-(2-Bromophenyl)-6-(pyridin-3-yl)pyrimidin-2-amine] | 149 to 152 | 
16 | COc1cccc(-c2cc(-c3cccnc3)nc(N)n2)c1 [Compound 15, 4-(3-Methoxyphenyl)-6-(pyridin-3-yl)pyrimidin-2-amine] | 162 to 164 | 
17 | Nc1nc(-c2cccnc2)cc(-c2cccc(Br)c2)n1 [Compound 16, 4-(3-Bromophenyl)-6-(pyridin-3-yl)pyrimidin-2-amine] | 169 to 171 | 
18 | Nc1nc(-c2cccnc2)cc(-c2cccc(F)c2)n1 [Compound 17, 4-(3-Fluorophenyl)-6-(pyridin-3-yl)pyrimidin-2-amine] | 196 to 198 | 
19 | COc1ccc(-c2cc(-c3cccnc3)nc(N)n2)cc1 [Compound 18, 4-(4-Methoxyphenyl)-6-(pyridin-3-yl)pyrimidin-2-amine] | 163 to 165 | 
20 | Nc1nc(-c2ccc(Br)cc2)cc(-c2cccnc2)n1 [Compound 19, 4-(4-Bromophenyl)-6-(pyridin-3-yl)pyrimidin-2-amine] | 210 to 211 | 
21 | COc1ccc(-c2cc(-c3cccnc3)nc(N)n2)cc1OC [Compound 20, 4-(3,4-Dimethoxyphenyl)-6-(pyridin-3-yl)pyrimidin-2-amine] | 165 to 167 | 
22 | Nc1nc(-c2cccnc2)cc(-c2ccc3c(c2)OCO3)n1 [Compound 21, 4-(2H-1,3-benzodioxol-5-yl)-6-(pyridin-3-yl)pyrimidin-2-amine] | 236 to 238 | pIC50 [2]: 4.89; CC50 at 70 h [3, 4]: > 100 µM
23 | COc1cc([C@@H]2c3cc4c(cc3[C@H](O)[C@H]3COC(=O)[C@H]23)OCO4)cc(OC)c1OC [Podophyllotoxin, reference compound] |  | CC50 at 70 h [3]: 0.019 µM

From paper PMC7762786, “The discovery of novel antitrypanosomal 4-phenyl-6-(pyridin-3-yl)pyrimidines” (European Journal of Medicinal Chemistry, 2021)
